What was measured:
[1] = tested on: HSF1; details: read-out: IC50, heat shock-induced HSF1 reporter activity; cited from earlier work
[2] = tested on: RKO cells; experiment: MTS cell viability assay, RKO; assay type: cell-based; details: Homo sapiens, 72 h, read-out: IC50, antiproliferative effect
Method: (§1) The Cell Titer 96 Aqueous Non-Radioactive Cell Proliferation Assay Kit (Promega, U.S.A.) was utilized to measure cell viability. RKO, DLD-1 cells (5 × 10^3 cells/well) and SW620, SW480 (6 × 10^3 cells/well) were seeded in 96-well plates overnight. This was followed by the removal of the culture medium and the exposure of all cells to different concentrations of chemical treatment for 72 h. The absorbance value of each well was determined by a microplate reader at 490 nm. Each experiment was repeated for three times.

[3] = tested on: DLD-1 cells; experiment: MTS cell viability assay, DLD-1; assay type: cell-based; details: Homo sapiens, 72 h, read-out: IC50, antiproliferative effect
Method: as §1

[4] = tested on: SW620 cells; experiment: MTS cell viability assay, SW620; assay type: cell-based; details: Homo sapiens, SW-620, 72 h, read-out: IC50 (50% inhibition), antiproliferative effect
Method: as §1

[5] = tested on: SW480 cells; experiment: MTS cell viability assay, SW480; assay type: cell-based; details: Homo sapiens, 72 h, read-out: IC50 (50% inhibition), antiproliferative effect
Method: as §1

[6] = tested on: CCD 841 CoN cells; experiment: MTS cell viability assay, normal colon epithelial cells; assay type: cell-based, human; details: 72 h
[7] = tested on: RKO cells; experiment: Cell cycle analysis by flow cytometry (PI); assay type: cell-based, human
Method: Cells (3 × 10^5 cells/well) were seeded in six-well plates and allowed to adhere overnight. The next day, the cells were treated with different compounds as indicated for 24 h. The cells were then trypsinized, washed, and fixed in 75% ice-cold ethanol at 4°C overnight. After centrifugation, the pellets were washed with cold PBS, suspended in 500 μl PBS with […] PI and incubated in the dark at 4°C for 30 min. Then cell suspension was tested using an FACS Calibur instrument (Becton Dickinson FACSCalibor, BD Biosciences, Franklin Lakes, NJ, U.S.A.).

[8] = tested on: HSF1; experiment: HSE luciferase reporter assay (heat shock-induced HSF1 reporter activity); assay type: cell-based; details: Homo sapiens, RKO cells, 30 min pretreatment, 43°C 1 h, 5 h recovery
Method: The double-strand DNA containing four copies of the palindromic HSE (5′-[…]-3′) was synthesized and inserted into the multiple cloning site (MCS) of pGL3-basic vector (Promega, U.S.A.), which was named as p(HSE)4-basic vector. Then, the Dual-Glo® Luciferase Assay System (Promega, U.S.A.) was used to measure the activity of the reporter. Briefly, RKO cells (3 × 10^5 cells/well) were seeded in six-well plates. After being cultured overnight, cells were co-transfected with 2 μg of p(HSE)4-basic vector and 0.2 μg of pRL-TK using X-treme GENE HP DNA Transfection Reagent (Roche, U.S.A.) according to the manufacturer’s protocol. The Renilla luciferase gene was transfected as an internal control vector. Twenty-four hours after transfection, cells were trypsinized and seeded in 12-well plates at a density of 8 × 10^4 cells per well. The next day, cells were incubated with Sch A at different concentrations for 30 min, exposed to heat shock at 43°C for 60 min, and then incubated further at 37°C for 5 h. Firefly and Renilla luciferase activities were measured using a dual-light reporter gene assay kit (Promega) with a Synergy 2 BioTek plate reader (BioTek, U.S.A.).

[9] = tested on: RKO and SW620 cells; experiment: Clonogenic (colony-forming) assay; assay type: cell-based, human; details: 75 and 150 μM for 24 h, colonies stained on 14th day, vs negative control
Method: RKO cells were seeded at a density of 800 cells per well in six-well cell culture plate overnight. Then Sch A was mixed into the culture medium and added at different concentrations. After 24 h, the culture medium was replaced with fresh culture medium, and was allowed to grow for an additional 14 ays. Following this, the medium was removed from the colonies, which were then washed twice with PBS, fixed with methanol for 15 min, stained with Crystal Violet for 15 min, and finally washed with running water for 5 min. Colonies containing more than 50 cells were counted, and then photographed for visualization.
Furthermore, colony-forming assays were performed to assess the long-term inhibitory effects of Sch A treatment. After 24 h of treatment with Sch A (75 and 150 μM), the cell culture was replaced with fresh medium every 3 days. On the 14th day, cell colonies were stained with 0.1% Crystal Violet and photographed.

[10] = tested on: HSP70, HSP27 and HSP90 mRNA; experiment: qRT-PCR of HSF1 target genes after heat shock; assay type: cell-based, human; details: RKO, 50-150 μM, heat shock 43°C 1 h, recovery 37°C 0.5 h
Method: Total RNA was extracted with TRIzol reagent (Invitrogen) following the manufacturer’s protocol. RNA concentrations were quantified by NanoDrop 2000 (Nanodrop, U.S.A.). Two micrograms RNA was reverse transcribed with High-Capacity cDNA Reverse Transcription Kit (Applied Biosystems, U.S.A.). Quantitative real-time PCR was performed to determine the mRNA expression level using SYBR Green Master Mix Kit and Light Cycler 480 II system (Roche, Shanghai, China).
Relative quantities of HSP70, HSP90 and HSP27 mRNA were normalized against ACTB mRNA.

[11] = tested on: Hsp70 and Hsp27; experiment: Western blot of HSF1 downstream proteins; assay type: cell-based, human; details: RKO, 50-150 μM, heat shock or 24 h at normal temperature
Method: (§2) After 24 h of treatment as indicated, the cells were washed once with PBS. The total proteins were extracted with RIPA buffer supplemented with protease inhibitors (Roche, U.S.A.) and quantified with BSA standard methodology. Equal amounts of proteins were separated by SDS/PAGE and transferred to a PVDF membrane. After blocking with 5% non-fat dry milk in TBST for 1.5 h, the membrane was incubated with a specific primary antibody diluted 1:1000 overnight at 4°C, and the secondary antibody was then conjugated with HRP (1:5000, Santa Cruz, CA) at room temperature for 2 h. The immunoreactive bands were visualized with enhanced chemiluminescence liquid (Millipore, Billerica, MA, U.S.A.) in Amersham Imager 600 system (GE Healthcare Life Sciences, Shanghai, China).

[12] = tested on: p-Rb (S807/811), Cyclin D1, Cdk4, Cdk6; experiment: Western blot of cell cycle-related proteins; assay type: cell-based, human; details: RKO, 50-150 μM, 24 h
Method: as §2

[13] = tested on: Cleaved-PARP, Cleaved-caspase-3, Bcl-2; experiment: Western blot of apoptosis-related proteins; assay type: cell-based, human; details: RKO, 50-150 μM, 24 h
Method: Flow cytometer analysis and Western blotting were used to detect cell apoptosis. For flow cytometer analysis of apoptosis, cells were treated […] for 24 h, washed twice with PBS, and re-suspended in 100 μl of 1 × binding buffer. Five microliters of FITC Annexin V and propidium iodide (PI) (556547, BD Biosciences, U.S.A.) were added to the cell suspension and then incubated at room temperature for 15 min. After dilution with 400 μl binding buffer, the samples were analyzed using an ACS Calibur flow cytometer (BD). For apoptosis using Western blotting, cleaved caspase 3, cleavage of PARP, Bcl-2, and BCl-xL were analyzed.
as §2

[14] = statement in discussion, no experiment and reference not given; cited from earlier work
[15] = molecular target: T1, human recombinant HSF1 full-length protein (Homo sapiens, UniProt Q00613); experiment: SPR direct binding to HSF1
T1 sequence (Q00613 1-529): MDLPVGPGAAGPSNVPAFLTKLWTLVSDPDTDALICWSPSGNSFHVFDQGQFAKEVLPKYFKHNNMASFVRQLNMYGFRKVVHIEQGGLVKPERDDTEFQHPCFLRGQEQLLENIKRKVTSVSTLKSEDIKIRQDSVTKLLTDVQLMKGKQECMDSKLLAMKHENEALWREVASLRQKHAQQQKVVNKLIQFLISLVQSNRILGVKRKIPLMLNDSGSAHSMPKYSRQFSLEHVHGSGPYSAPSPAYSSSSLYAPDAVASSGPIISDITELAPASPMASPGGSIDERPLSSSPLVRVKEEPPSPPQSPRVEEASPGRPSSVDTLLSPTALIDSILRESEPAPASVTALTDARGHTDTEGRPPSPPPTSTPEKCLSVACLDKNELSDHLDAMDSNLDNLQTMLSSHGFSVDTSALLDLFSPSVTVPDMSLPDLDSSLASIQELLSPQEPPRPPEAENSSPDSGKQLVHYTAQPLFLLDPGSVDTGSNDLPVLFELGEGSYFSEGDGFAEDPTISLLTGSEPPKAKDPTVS
Method: SPR experiments were performed on a ProteOn XPR36 Protein Interaction Array system (Bio-Rad Laboratories, Hercules, CA, U.S.A.). Briefly, HSF1 solution in PBST (5 mM, pH 7.4) at a concentration of 1 mg/ml was diluted to 30 μg/ml with sodium acetate buffer (pH 4.5). The chip was activated with EDC/NHS (10 μl/min for 600 s). Then, HSF1 was loaded (5 μl/min for 400 s) and immobilized covalently. Approximately 7000 RU of HSF1 was immobilized on the chip. Any excess of unbound HSF1 was removed by flowing PBS solution (5 mM, pH 7.4, with 5%, w/v, DMSO). […] Five concentrations were injected simultaneously at a flow rate of 30 μM/min for 120 s of association phase, followed with 120 s of dissociation phase at 25°C. The final graph was obtained by subtracting blank sensorgrams from the duplex or quadruplex sensorgrams. Data were analyzed using the ProteOn manager software.

## CNc1ccc([N+](=O)[O-])c(Nc2ccc3[nH]ncc3c2)n1 [KRIBB11]
[1]
  IC50: 1.2 µM

## COc1cc2c(c(OC)c1OC)-c1c(cc(OC)c(OC)c1OC)C[C@H](C)[C@H](C)C2 [Sch A, Schizandrin A]
[2]
  IC50: 68.7 µM
[3]
  IC50: > 150 µM
[4]
  IC50: 85.7 µM
[5]
  IC50: 87.6 µM
[6]; CCD 841 CoN cells, up to 150 μM
  effect on cell viability: little effect on the cell viability
[6]; Homo sapiens, CCD 841 CoN normal colon epithelial cells, MTS, read-out: IC50, antiproliferative effect
  IC50: > 150 µM
[7]; 50 μM, 24 h (DMSO 15.92 %)
  Dip G2: 14.49%
[7]; 50 μM, 24 h (DMSO 38.03 %)
  Dip S: 30.80%
[7]; 50 μM, 24 h (DMSO 46.05 %)
  Dip G1: 54.71%
[7]; 75 μM, 24 h
  Dip G1: 62.16%
  Dip G2: 10.56%
  Dip S: 27.28%
[7]; 100 μM, 24 h
  Dip G1: 72.26%
  Dip G2: 7.82%
  Dip S: 19.93%
[7]; 150 μM, 24 h
  Dip G1: 82.94%
  Dip G2: 8.53%
  Dip S: 8.53%
[8]
  inhibition at 100 µM: ~50%
[9]
  effect on clone formation: stronger inhibitory effect on cancer cell growth in a dose-dependent manner
[10]
  transcription of HSF1 target genes (HSP70, HSP27, HSP90 mRNA): effectively blocked the transcription of HSF1 target genes
[11]
  HSF1-regulated downstream signaling induced by heat shock and basal expression of Hsp 70 and Hsp 27: effectively down-regulated
[12]
  expression of cell cycle-related proteins (p-Rb, Cyclin D1, Cdk4, Cdk6): reducing the expression of cell cycle-related proteins
[13]
  expression of anti-apoptotic protein Bcl-2: decreased
  expression of pro-apoptotic molecules (Cleaved-PARP and Cleaved-caspase-3): significantly elevated
[14]
  water solubility: low water solubility
[15]
  Kd: 106 µM
[15]; pH 7.4, read-out: Ka (association constant, SPR)
  kon: 26900 M⁻¹ s⁻¹

Source: paper PMC7069920, “Schizandrin A exhibits potent anticancer activity in colorectal cancer cells by inhibiting heat shock factor 1” (Bioscience Reports, 2020)
